What was measured:
[1] = tested on: AsPC1 human pancreatic carcinoma xenografts; test: Antitumor efficacy in AsPC1 pancreatic xenografts in nude mice; type: in vivo; conditions: 90 mg/kg ip q3d
Procedure: Female (athymic nu/nu) nude mice were obtained from Charles River Laboratories (Wilmington, Mass.), while female SCID-beige mice were purchased from Taconic (Germantown, N.Y.). Mice were used when they were approximately 8-12 weeks old (nudes) or 8-10 weeks old (SCID-beige), and weighed approximately 23-25 grams. The health of all animals was determined daily by gross observation of experimental animals and by the analyses of blood samples of sentinel animals that were housed on the shared shelf racks. All animals were allowed to acclimate and recover from any shipping related stress for a minimum of 72 hours prior to experimental use. Autoclaved water and irradiated food [5058-ms Pico chow (mouse) Purina, Richmond, Ind.] were provided ad libitum, and the animals were maintained on a 12 hour light and dark cycle. Cages, bedding and water bottles were autoclaved before use and were changed weekly. MiaPaca2, AsPC1 and BxPC3 human pancreatic carcinoma cells were purchased from ATCC (Manassas, Va.). BxPC3 and AsPC1 cells were grown in RPMI medium and MiaPaca2 cells were grown in Dulbecco's Modified Essential Medium (DMEM). All culture media were supplemented with 10% (v/v) FBS and 1% (v/v) […]. […] SCID-biege mice were implanted se with 5×10^6 BxPC3 cells in a 1:1 mixture of matrigel:PBS in a volume of 0.2 ml per mouse in the right hind flank on May 22, 2007. […] Formulated compound and vehicle were stored at 4° C. and prepared weekly. The suspension was mixed vigorously prior to administration. Gemcitabine (Gemzar®, Eli Lilly and Company, Indianapolis, Ind., USA) was reconstituted with sterile saline to yield a stock solution of 38 mg/ml for the entire 3-4 week study. […] Nude mice implanted with MiaPaca2 or AsPC1 xenografts were randomized on day 17 and day 9 post cell implant, respectively. SCID-beige mice bearing BxPC3 xenografts were randomized 8 days post implant. […] Treatment for the MiaPaca2 study began on Feb. […] For the MiaPaca2 and AsPC1 studies, qd Compound (1) suspension or q3d gemcitabine treatment ended on day 37 post tumor cell implant, whereas for the BxPC3 study, qd Compound (1) suspension or q3d gemcitabine treatment ended on day 35 post tumor cell implant. For intermittent dosing of Compound (1) suspension in the AsPC1 study using the 7+/7− schedule×2 cycles, treatment ended on day 15, was reinitiated on day 23, and finally ended day 29. For intermittent dosing using the 3+/4− schedule×4 cycles, treatment ended on day 11, was reinitiated on day 16, ended day 18, was reinitiated on day 23, ended day 25, was reinitiated day 30, and finally ended on day 32. In the first combination group, daily Compound (1) was given simultaneously with q3d gemcitabine for a total of four weeks. For the remaining combination groups, Compound (1) and gemcitabine were given sequentially rather than simultaneously. In group 8 gemcitabine was dosed q3d during the 1st and 3rd weeks, whereas Compound (1) was given daily during the 2nd and 4th weeks only. In group 9, the order of compound dosing was reversed, with Compound (1) suspension given daily during the 1st and 3rd weeks, whereas gemcitabine was given q3d during the 2nd and 4th weeks. In group 10, gemcitabine was dosed q3d during the 1st and 2nd weeks, whereas Compound (1) was given daily during the 3rd and 4th weeks. In group 11, the order of compound dosing was reversed, with Compound (1) given daily during the 1st and 2nd weeks, and gemcitabine dosed q3d for the 3rd and 4th weeks. […]

[2] = tested on: MiaPaca2 human pancreatic carcinoma xenografts; test: Antitumor efficacy in MiaPaca2 pancreatic xenografts in nude mice; type: in vivo; conditions: 60 mg/kg ip q3d, day 37
Procedure: Female (athymic nu/nu) nude mice were obtained from Charles River Laboratories (Wilmington, Mass.), while female SCID-beige mice were purchased from Taconic (Germantown, N.Y.). Mice were used when they were approximately 8-12 weeks old (nudes) or 8-10 weeks old (SCID-beige), and weighed approximately 23-25 grams. The health of all animals was determined daily by gross observation of experimental animals and by the analyses of blood samples of sentinel animals that were housed on the shared shelf racks. All animals were allowed to acclimate and recover from any shipping related stress for a minimum of 72 hours prior to experimental use. Autoclaved water and irradiated food [5058-ms Pico chow (mouse) Purina, Richmond, Ind.] were provided ad libitum, and the animals were maintained on a 12 hour light and dark cycle. Cages, bedding and water bottles were autoclaved before use and were changed weekly. MiaPaca2, AsPC1 and BxPC3 human pancreatic carcinoma cells were purchased from ATCC (Manassas, Va.). BxPC3 and AsPC1 cells were grown in RPMI medium and MiaPaca2 cells were grown in Dulbecco's Modified Essential Medium (DMEM). All culture media were supplemented with 10% (v/v) FBS and 1% (v/v) […]. […] SCID-biege mice were implanted se with 5×10^6 BxPC3 cells in a 1:1 mixture of matrigel:PBS in a volume of 0.2 ml per mouse in the right hind flank on May 22, 2007. […] Formulated compound and vehicle were stored at 4° C. and prepared weekly. The suspension was mixed vigorously prior to administration. Gemcitabine (Gemzar®, Eli Lilly and Company, Indianapolis, Ind., USA) was reconstituted with sterile saline to yield a stock solution of 38 mg/ml for the entire 3-4 week study. […] Nude mice implanted with MiaPaca2 or AsPC1 xenografts were randomized on day 17 and day 9 post cell implant, respectively. SCID-beige mice bearing BxPC3 xenografts were randomized 8 days post implant. […] Treatment for the MiaPaca2 study began on Feb. […] For the MiaPaca2 and AsPC1 studies, qd Compound (1) suspension or q3d gemcitabine treatment ended on day 37 post tumor cell implant, whereas for the BxPC3 study, qd Compound (1) suspension or q3d gemcitabine treatment ended on day 35 post tumor cell implant. For intermittent dosing of Compound (1) suspension in the MiaPaca2 study using the 7+/7−/7+ schedule, treatment ended on day 23, was reinitiated on day 31, and ended day 37. In the combination groups Compound (1) suspension was given sequentially with gemcitabine using the 7+/7−/7+ schedule so that Compound (1) was dosed daily only during the first and third weeks, whereas gemcitabine was dosed q3d during the second week only. Efficacy data was graphically represented as the mean tumor volume+standard error of the mean (SEM). Tumor volumes of treated groups were presented as percentages of tumor volumes of the control groups (% T/C), using the formula: 100×((T−T0)/(C−C0)), where T represented mean tumor volume of a treated group on a specific day during the experiment, T0 represented mean tumor volume of the same […] on the first day of treatment; C represented mean tumor volume of a control group on the specific day during the experiment, and C0 represented mean tumor volume of the same treated group on the first day of treatment. Tumor volume (in cubic millimeters) was calculated using the ellipsoid formula: (D×(d2))/2 where ‘D’ represents the large diameter of the tumor, and ‘d’ represents the small diameter. In some cases, tumor regression and/or percent change in tumor volume was calculated using the formula: ((T−T0)/T0)×100 where ‘T’ represents mean tumor volume of the treated group at a particular day, and ‘T0’ represents mean tumor volume of the same treated group at initiation of treatment. Statistical analysis was determined by the rank sum test and One Way Anova and a post-hoc Bonferroni t-test (SigmaStat, version 2.0, Jandel Scientific, San Francisco, Calif.). […]

Nc1ccn([C@@H]2O[C@H](CO)[C@@H](O)C2(F)F)c(=O)n1 [gemcitabine, Gemcitabine, reference compound]
% TGI [1]: 39% | % TGI [2]: 62%
